Results reported in US6756374B2, “Diaminothiazoles having antiproliferative activity” (Hoffmann-La Roche Inc., priority 2001, dated 2004).

What was measured:
[1] = biological target: human cyclin E-CDK2 (Homo sapiens, UniProt P24941); experiment: FlashPlate kinase assay, cyclin E-CDK2; assay type: biochemical; conditions: Rb protein substrate, 1 μM ATP
Experimental: (§1) To determine inhibition of Cdk4, Cdk2 and Cdk1 activity, kinase assays were conducted using FlashPlate™ assays (NEN™-Life Science Products). FlashPlate assays were performed using recombinant human cyclin B-CDK1, human cyclin E-CDK2 or human cyclin D1-CDK4 complexes. GST-cyclinE (GST-cycE), CDK2, GST-cyclinB (GST-cycB), CDK1, GST-CDK4 and cyclin D1 (cycD1) cDNA clones in baculovirus vectors were provided by Dr. W. Harper at the Baylor College of Medicine, Houston, Tex.
(§2) The expression of the 62Kd protein was under the control of an IPTG inducible promoter in an M15 E. coli strain. Cells were lysed by sonication and purification was carried out by binding lysates at pH 8.0 to a Ni-chelated agarose column pretreated with 1 mM imidazole. The resin was then washed several times with incrementally decreasing pH buffers to pH 6.0, and eluted with 500 mM imidazole. Eluted protein was dialysed against 20 mM HEPES pH 7.5, 30% glycerol, 200 mM NaCl, and 1 mM DTT. Purified Rb fusion protein stocks were quantitated for protein concentration, aliquoted, and stored at −70° C.
(§3) For all three kinase assays reported herein, 96-well FlashPlates were coated with Rb protein at 10 μg/ml, using 100 μl per well. Plates were incubated at 4° C. overnight or at room temperature for 3 hours on a shaker. To control for nonspecific phosphorylation, one row of wells was coated with 100 μl/well coating buffer (20 mM HEPES, 0.2 M NaCl). Plates were then washed twice with wash buffer (0.01% Tween 20 in phosphate-buffered saline). Compounds to be tested (“test compounds”) were added to the wells at 5×final concentration. Reactions were initiated by immediate addition of 40 μl reaction mix (25 mM HEPES, 20 mM MgCl2, 0.002% Tween 20, 2 mM DTT, 1 μM ATP, 4 nM ^33P-ATP) and a sufficient amount of enzyme to give counts that were at least 10-fold above background. Plates were incubated at room temperature on a shaker for 30 minutes. Plates were washed four times with the wash buffer, sealed, and counted on the TopCount scintillation counter (Packard Instrument Co., Downers Grove, Ill.]. The percent inhibition of Rb phosphorylation, which is a measure of the inhibition of CDK activity, was determined according to the following formula: [formula]
(§4) where “test compound” refers to the average counts per minute of the test duplicates, “nonspecific” refers to the average counts per minute when no CyclinD/Cdk4, etc., was added, and “total” refers to the average counts per minute when no compound was added.

[2] = test system: HCT116; experiment: Tetrazolium dye (MTT) proliferation assay; assay type: cell-based; conditions: Homo sapiens, HCT-116; HCT116 colorectal carcinoma cell line
Experimental: The cell line used was HCT116, a colorectal carcinoma cell line obtained from the American Type Cell Culture Collection (ATCC;
Rockville, Md.). The cells were grown in McCoy's 5A medium supplemented with 10% FCS and L-glutamine.
Cells were plated at the appropriate seeding density to give logarithmic growth over the course of the assay in a 96-well tissue culture plate. Plates were incubated overnight at 37° C. in a humidified incubator with 5% CO2. The next day, test compounds were serially diluted to four times the final concentration in the appropriate medium containing 1.2% DMSO. One-fourth final volume of each dilution was added in duplicate to the plates containing cells. The same volume of 1.2% DMSO in medium was added to a row of “control wells” such that the final concentration of DMSO in each well was 0.3%. Wells to which no cells were added served as the “blank.” Wells to which no inhibitor was added served as “no inhibitor control.” The plates were) returned to the incubator, and at set time points (determined by their growth curves) plates were analyzed as described below.
3-(4,5-dimethylthiazole-2-yl)-2,5-diphenyl-2H-tetrazolium bromide (thiazolyl blue; MTT; Sigma) was added to each well to yield a final concentration of 1 mg/ml. Plates were returned to the incubator for 2.5-3 hours at 37° C. The MTT-containing medium was removed and the resulting formazan metabolite was solubilized in 100% ethanol with shaking for 15 minutes at room temperature. Absorbance readings were taken in a microtiter plate reader (Dynatech and Molecular Devices plate readers were used interchangeably) at a wavelength of 570 nm with a 650 nm reference. Percent inhibition (% INH) is calculated by subtracting the absorbance of the blank well from all wells, then subtracting the ratio of the average absorbance of each test duplicate (SAVE) by the average of the controls (CAVE) from 1.00. The final number is then multiplied by 100 (% INH=(1.00−SAVE/CAVE)×100).

[3] = biological target: human cyclin D1-CDK4 (Homo sapiens, UniProt P11802); experiment: FlashPlate kinase assay, cyclin D1-CDK4; assay type: biochemical; conditions: Rb protein substrate, 1 μM ATP
Chain of human cyclin D1-CDK4 (P11802 whole entry): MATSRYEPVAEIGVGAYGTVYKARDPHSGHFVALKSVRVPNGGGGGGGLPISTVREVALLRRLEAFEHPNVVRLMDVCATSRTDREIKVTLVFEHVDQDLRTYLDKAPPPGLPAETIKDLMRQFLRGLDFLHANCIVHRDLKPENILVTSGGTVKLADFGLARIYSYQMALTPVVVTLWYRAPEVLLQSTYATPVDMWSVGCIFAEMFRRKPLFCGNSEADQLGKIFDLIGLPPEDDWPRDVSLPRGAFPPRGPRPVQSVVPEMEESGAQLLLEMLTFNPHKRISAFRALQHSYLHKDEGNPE
Chain of human cyclin D1-CDK4 (P24385 whole entry partner): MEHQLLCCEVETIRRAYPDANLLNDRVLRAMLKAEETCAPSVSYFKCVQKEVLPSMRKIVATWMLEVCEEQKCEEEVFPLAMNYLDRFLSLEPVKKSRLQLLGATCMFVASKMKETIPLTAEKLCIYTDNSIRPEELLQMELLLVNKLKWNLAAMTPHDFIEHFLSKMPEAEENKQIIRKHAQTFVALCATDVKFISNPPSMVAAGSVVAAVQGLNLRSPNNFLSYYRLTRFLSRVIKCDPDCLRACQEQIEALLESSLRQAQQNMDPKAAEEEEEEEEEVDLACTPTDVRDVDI
Experimental: as §1, §2, §3, §4

[4] = biological target: human cyclin B-CDK1 (Homo sapiens, UniProt P06493); experiment: FlashPlate kinase assay, cyclin B-CDK1; assay type: biochemical; conditions: Rb protein substrate, 1 μM ATP
Chain of human cyclin B-CDK1 (P06493 whole entry): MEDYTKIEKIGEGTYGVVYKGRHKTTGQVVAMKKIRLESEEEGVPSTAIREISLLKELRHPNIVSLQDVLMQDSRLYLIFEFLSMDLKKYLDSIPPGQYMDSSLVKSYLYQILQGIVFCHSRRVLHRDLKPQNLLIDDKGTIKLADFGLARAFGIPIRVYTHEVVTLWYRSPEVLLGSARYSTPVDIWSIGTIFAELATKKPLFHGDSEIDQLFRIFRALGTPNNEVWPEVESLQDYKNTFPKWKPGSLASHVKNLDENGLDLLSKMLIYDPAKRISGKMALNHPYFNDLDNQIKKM
Chain of human cyclin B-CDK1 (P14635 whole entry partner): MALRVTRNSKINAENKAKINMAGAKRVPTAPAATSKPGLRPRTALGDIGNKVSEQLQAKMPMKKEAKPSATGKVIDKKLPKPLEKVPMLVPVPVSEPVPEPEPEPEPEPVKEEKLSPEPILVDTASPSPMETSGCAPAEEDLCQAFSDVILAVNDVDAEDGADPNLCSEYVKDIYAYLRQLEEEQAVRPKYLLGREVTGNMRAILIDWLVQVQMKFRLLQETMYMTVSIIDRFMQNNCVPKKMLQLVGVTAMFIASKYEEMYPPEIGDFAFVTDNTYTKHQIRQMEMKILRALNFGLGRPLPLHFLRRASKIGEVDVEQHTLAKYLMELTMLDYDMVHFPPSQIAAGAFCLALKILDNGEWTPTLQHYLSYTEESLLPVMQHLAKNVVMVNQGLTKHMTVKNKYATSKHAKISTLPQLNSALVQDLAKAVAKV
Experimental: as §1, §2, §3, §4

[5] = biological target: Cdk1 (Homo sapiens, UniProt P06493); conditions: cited from earlier work
Chain of Cdk1 (P06493 whole entry, species assumed): as the sequence (P06493 whole entry) above
Chain of Cdk1 (P14635 whole entry partner, species assumed): as the sequence (P14635 whole entry partner) above

[6] = test system: PKC; conditions: cited from earlier work
[7] = test system: cells; conditions: cited from earlier work
[8] = biological target: Cdk4 (Homo sapiens, UniProt P11802); conditions: cited from earlier work
Chain of Cdk4 (P11802 whole entry, species assumed): as the sequence (P11802 whole entry) above
Chain of Cdk4 (P24385 whole entry partner, species assumed): as the sequence (P24385 whole entry partner) above

[9] = biological target: Cdk2 (Homo sapiens, UniProt P24941); conditions: cited from earlier work

IC50 [1] [µM] | IC50 [2] [µM] | IC50 [3] [µM] | IC50 [4] [µM] | Compound | inhibition of Cdk1 [5] | inhibition of PKC [6] | cell cycle block [7] | inhibition of Cdk4 [8] | inhibition of Cdk2 [9]
5.3 | 1.3 | 0.025 | 5.2 | CC(C)C[C@H](CO)Nc1ccc(C(=O)c2sc(Nc3ccc(N4CCN(C)CC4)cc3)nc2N)cc1[N+](=O)[O-] [Example 63, (R)-[4-Amino-2-[[4-(4-methyl-1-piperazinyl)phenyl]amino]-5-thiazolyl][3-nitro-4-[[1-(hydroxymethyl)-3-methylbutyl]amino]phenyl]methanone] |  |  |  |  | 
4.8 | 8 | 0.009 | 3.5 | CN1CCN(c2ccc(Nc3nc(N)c(C(=O)c4ccc(N5CCC(O)CC5)c([N+](=O)[O-])c4)s3)cc2)CC1 [Example 64, [4-Amino-2-[[4-(4-methyl-1-piperazinyl)phenyl]amino]-5-thiazolyl][3-nitro-4-(4-hydroxy-1-piperidinyl)phenyl]methanone] |  |  |  |  | 
7.4 | 1.2 | 0.026 | 2.2 | CN1CCN(c2ccc(Nc3nc(N)c(C(=O)c4ccc(N5CCCC5)c(N)c4)s3)cc2)CC1 [Example 65] |  |  |  |  | 
3.8 | 10.8 | 0.02 | 9.6 | CC(C)C[C@H](CO)Nc1ccc(C(=O)c2sc(Nc3ccc(N4CCN(C)CC4)cc3)nc2N)cc1N [Example 66, (R)-[3-Amino-4-[[1-(hydroxymethyl)-3-methylbutyl]amino]phenyl][4-amino-2-[[4-(4-methyl-1-piperazinyl)phenyl]amino]-5-thiazolyl]methanone] |  |  |  |  | 
 |  |  |  | CN1CC[C@H](c2c(O)cc(O)c3c(=O)cc(-c4ccccc4Cl)oc23)[C@H](O)C1 [Flavopiridol] | inhibits | weaker inhibitor | blocks cells in both G1 and G2 phases | inhibits | inhibits
